Experimental data taken from ChEMBL document CHEMBL1145850, “Pharmacophoric requirements for the cannabinoid side chain. Probing the cannabinoid receptor subsite at C1'” (J Med Chem, 2003).

How the values were obtained:
Cannabinoid receptor 2 = Cannabinoid receptor 2 (Mus musculus, UniProt P47936); test: Compound was tested for its binding affinity against mouse spleen Cannabinoid receptor 2 using [3H]CP-55940 as radioligand; format: tissue-based
Cannabinoid receptor 1 = Cannabinoid receptor 1 (Rattus norvegicus, UniProt P20272); test: Binding affinity against rat brain Cannabinoid receptor 1 using [3H]CP-55940
Chain of Cannabinoid receptor 1 (P20272 whole entry): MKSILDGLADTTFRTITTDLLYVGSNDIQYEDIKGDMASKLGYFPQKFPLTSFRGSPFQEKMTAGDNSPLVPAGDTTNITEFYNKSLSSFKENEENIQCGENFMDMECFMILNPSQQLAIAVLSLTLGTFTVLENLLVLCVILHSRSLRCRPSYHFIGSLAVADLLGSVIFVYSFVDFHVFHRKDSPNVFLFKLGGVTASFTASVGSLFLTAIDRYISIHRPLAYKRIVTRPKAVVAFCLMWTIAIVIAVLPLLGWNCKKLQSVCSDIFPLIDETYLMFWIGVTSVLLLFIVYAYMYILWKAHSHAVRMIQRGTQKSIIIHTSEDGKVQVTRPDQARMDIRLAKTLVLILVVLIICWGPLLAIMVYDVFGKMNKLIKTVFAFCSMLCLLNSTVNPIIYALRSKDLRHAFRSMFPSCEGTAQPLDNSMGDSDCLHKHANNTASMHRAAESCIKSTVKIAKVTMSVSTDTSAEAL

Chain of Cannabinoid receptor 2 (P47936 whole entry): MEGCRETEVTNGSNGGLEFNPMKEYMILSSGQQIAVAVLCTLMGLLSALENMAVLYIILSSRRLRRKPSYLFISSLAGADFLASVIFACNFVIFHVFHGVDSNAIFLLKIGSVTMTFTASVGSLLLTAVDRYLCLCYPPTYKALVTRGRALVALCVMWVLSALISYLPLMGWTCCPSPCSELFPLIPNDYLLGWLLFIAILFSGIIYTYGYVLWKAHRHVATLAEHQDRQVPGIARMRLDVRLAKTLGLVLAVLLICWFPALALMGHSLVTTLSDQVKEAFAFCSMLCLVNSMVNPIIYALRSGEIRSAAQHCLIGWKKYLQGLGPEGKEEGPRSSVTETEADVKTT

**Q.** Which Ki (Cannabinoid receptor 2) does the source give for `CCCCCCC1(c2cc(O)c3c(c2)OC(C)(C)[C@@H]2CC=C(C)C[C@@H]32)OCCO1` here?
**A.** 0.22 nM

**Q.** What about the Ki (Cannabinoid receptor 1) of the same compound?
**A.** 0.52 nM

**Q.** What does the source list for `CCCCCCC1(c2cc(O)c3c(c2)OC(C)(C)[C@@H]2CC=C(C)C[C@@H]32)SCCCS1`?
**A.** Ki (Cannabinoid receptor 2): 3.6 nM; Ki (Cannabinoid receptor 1): 1.8 nM

**Q.** For `CCCCCCC1(c2cc(O)c3c(c2)OC(C)(C)[C@@H]2CC=C(C)C[C@@H]32)CCCC1`, which Ki (Cannabinoid receptor 2) is on record?
**A.** 1.92 nM

**Q.** And the Ki (Cannabinoid receptor 1)?
**A.** 0.45 nM

**Q.** For `CC1=CC[C@@H]2[C@@H](C1)c1c(O)cc(C3SCCS3)cc1OC2(C)C`, which Ki (Cannabinoid receptor 2) is on record?
**A.** 103 nM

**Q.** What about the Ki (Cannabinoid receptor 1) of the same compound?
**A.** 168 nM

**Q.** With `CCCCCCC1(c2cc(O)c3c(c2)OC(C)(C)[C@@H]2CC=C(C)C[C@@H]32)Sc2ccccc2S1` as the compound, how does the Ki (Cannabinoid receptor 2) read?
**A.** 257 nM

**Q.** And the Ki (Cannabinoid receptor 1)?
**A.** 56.9 nM

**Q.** What does the source list for `CCCCCCC1(c2cc(O)c3c(c2)OC(C)(C)[C@@H]2CC=C(C)C[C@@H]32)SC(C)C(C)S1` (stereo partly drawn)?
**A.** Ki (Cannabinoid receptor 2): 19.7 nM; Ki (Cannabinoid receptor 1): 32.3 nM

**Q.** With `CCCCCCCc1cc(O)c2c(c1)OC(C)(C)[C@@H]1CC=C(C)C[C@@H]21` as the compound, how does the Ki (Cannabinoid receptor 1) read?
**A.** 22 nM
